Paper PMC6723352, “Exploring Structure-Activity Relationship in Tacrine-Squaramide Derivatives as Potent Cholinesterase Inhibitors” (Biomolecules, 2019)

Key:
[1] = target: human BChE (hBChE), human plasmatic butyrylcholinesterase (Homo sapiens, UniProt P06276); assay: hBChE inhibition, modified Ellman's method; type: biochemical; details: mean of at least three experiments; read-out: IC50 hBChE
Description: Three series of tacrine-squaramide homodimers were tested for their inhibitory potential against human AChE (hAChE) and human BChE (hBChE) enzymes using modified spectrophotometric method of Ellman et al.. THA, 6-Cl-THA and 7-MEOTA were used as reference compounds.
(§1) Human plasmatic butyrylcholinesterase (BChE; EC 3.1.1.8) and recombinant acetylcholinesterase (AChE; 3.1.1.7) were prepared at the Department of Toxicology and Military Pharmacy. 5,5′-dithiobis(2-nitrobenzoic acid) (Ellman’s reagent, DTNB), phosphate buffer (PB, pH 7.4), acetylthiocholine (ATC) and butyrylthiocholine (BTC), were purchased from Sigma-Aldrich, Prague, Czech Republic. For measuring purposes – polystyrene Nunc 96-well microplates with flat bottom shape (ThermoFisher Scientific, USA) were utilized.
(§2) All the assays were carried out in 0.1 M KH2PO4/K2HPO4 buffer, pH 7.4. Enzyme solutions were prepared at 2.0 units/mL in 2 mL aliquots. The assay medium (100 µL) consisted of 40 µL of 0.1 M phosphate buffer (pH 7.4), 20 µL of 0.01 M DTNB, 10 µL of the enzyme, and 20 µL of 0.01 M substrate (ATC/BTC iodide solution).
(§3) Tested compounds were preincubated for 5 min. The reaction was started by immediate addition of 20 µL of the substrate. The activity was determined by measuring the increase in absorbance at 412 for AChE/BChE at 37 °C at 2 min intervals - using a Multi-mode microplate reader Synergy 2 (Winooski, VT, USA). Each concentration was assayed in triplicate. Software GraphPad Prizm 5 (San Diego, CA, USA) was used for the statistical data evaluation.

in vitro = details: human
Description: The human origin cell line HepG2 (ATCC, Mannassas, VA, USA) isolated from liver hepatocellular carcinoma was used to evaluate cytotoxicity of tested compounds. The cells were cultivated in Dublecco’s modified Eagle’s medium (DMEM; Biosera, Nuaille, France) supplemented with 10% fetal bovine serum (Biosera) and 1% penicillin-streptomycin antibiotic solution (Sigma-Aldrich, St. Louis, MO, USA), incubated at 37 °C in a CO2 incubator (Binder CO2 incubator BC 160, Tuttlingen, Germany) and routinely passaged by trypsinization at 75–85% confluence.
The final concentration of DMSO was less than 0.25% per well.
After 24-h incubation, the medium containing serially diluted substances was aspirated from each well and replaced by 100 µL of fresh medium containing MTT (0.5 mg/mL). Plates were subsequently incubated at 37 °C in CO2 incubator for 45 min. The medium containing MTT was then aspirated and formazan dissolved in 100 μL of DMSO. The optical density of each well was measured using Synergy 2 Multi-Mode Microplate Reader (BioTek Instruments, Inc., Winooski, VT, USA) at 570 nm. The cell viability was expressed as the percentage of untreated control. Each experiment was performed in triplicate and repeated three independent times.
The IC50 values were expressed as a mean ± standard error of the mean (SEM).

[2] = target: T1, human AChE (hAChE), recombinant acetylcholinesterase (Homo sapiens, UniProt P22303); assay: hAChE inhibition, modified Ellman's method; type: biochemical; details: for SI (selectivity index for hAChE): ratio IC50(hBChE)/IC50(hAChE)
T1 construct: made in house
T1 sequence (P22303 32-614): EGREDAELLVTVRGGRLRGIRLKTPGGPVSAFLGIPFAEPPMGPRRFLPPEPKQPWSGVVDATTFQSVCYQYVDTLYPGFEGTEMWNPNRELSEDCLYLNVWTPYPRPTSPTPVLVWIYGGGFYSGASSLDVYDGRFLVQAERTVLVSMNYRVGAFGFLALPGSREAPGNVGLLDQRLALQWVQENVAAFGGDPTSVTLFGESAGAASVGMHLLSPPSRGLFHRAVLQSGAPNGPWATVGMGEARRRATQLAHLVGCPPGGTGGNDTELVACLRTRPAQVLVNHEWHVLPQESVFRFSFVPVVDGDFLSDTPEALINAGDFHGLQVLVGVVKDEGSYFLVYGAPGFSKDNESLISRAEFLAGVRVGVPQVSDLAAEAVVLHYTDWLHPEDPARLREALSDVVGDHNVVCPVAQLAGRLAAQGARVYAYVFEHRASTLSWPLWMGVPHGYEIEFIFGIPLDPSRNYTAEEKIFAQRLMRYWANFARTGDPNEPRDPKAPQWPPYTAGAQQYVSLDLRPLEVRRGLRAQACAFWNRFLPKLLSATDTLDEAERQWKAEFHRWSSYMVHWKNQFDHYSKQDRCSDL
Description: Three series of tacrine-squaramide homodimers were tested for their inhibitory potential against human AChE (hAChE) and human BChE (hBChE) enzymes using modified spectrophotometric method of Ellman et al.. THA, 6-Cl-THA and 7-MEOTA were used as reference compounds. […].
as §1, §2, §3

[3] = for Pe: PAMPA, PBS pH 7.4; for CNS (+/−) predicted BBB permeation: class from Pe
Text: An important feature for drugs targeting the brain is their ability to cross the BBB. The parallel artificial membrane permeability assay (PAMPA) is a high-throughput screening tool applicable for prediction of passive transport across BBB [57]. […] These include mainly (i) the different composition of the human phospholipid bilayer may cause deviation in predicted permeability, (ii) omitting the absorption of compounds that are actively transported by influx transporters and pumped-out by various efflux mechanisms with the glycoprotein P at the forefront or (iii) transport through the paracellular route which is mostly exploited by small […] molecules. Even considering these drawbacks, PAMPA-BBB is conceived as very simple but powerful tool for BBB prediction.
PAMPA (the parallel artificial membrane permeability assay) is a high-throughput screening tool applicable for prediction of the passive transport of potential drugs across the blood-brain barrier (BBB). In this study, it has been used as a non-cell-based in vitro assay carried out in a coated 96-well membrane filter. The filter membrane of the donor plate was coated with PBL (Polar Brain Lipid, Avanti, USA) in dodecane (4 µl of 20 mg/mL PBL in dodecane) and the acceptor well was filled with 300 µl of phosphate buffer saline, (PBS pH 7.4; VA). The tested compounds were dissolved first in DMSO and then diluted with PBS pH 7.4 to reach the final concentrations 50–500 µM in the donor well. […] In principle, test compound diffuse from the donor well through the polar brain lipid membrane (area = 0.28 cm^2) to the acceptor well. The concentration of the tested compound in both donor and the acceptor wells were assessed after 3, 4, 5 and 6 h of incubation in quadruplicate using the UV plate reader Synergy HT (Biotek, USA) at the maximum absorption wavelength of each compound (n = 3). Besides that, the solution of theoretical compound concentration, simulating the equilibrium state, established if the membrane was ideally permeable was prepared and assessed as well.

human BChE (hBChE), human plasmatic butyrylcholinesterase, sequence (P06276 29-602): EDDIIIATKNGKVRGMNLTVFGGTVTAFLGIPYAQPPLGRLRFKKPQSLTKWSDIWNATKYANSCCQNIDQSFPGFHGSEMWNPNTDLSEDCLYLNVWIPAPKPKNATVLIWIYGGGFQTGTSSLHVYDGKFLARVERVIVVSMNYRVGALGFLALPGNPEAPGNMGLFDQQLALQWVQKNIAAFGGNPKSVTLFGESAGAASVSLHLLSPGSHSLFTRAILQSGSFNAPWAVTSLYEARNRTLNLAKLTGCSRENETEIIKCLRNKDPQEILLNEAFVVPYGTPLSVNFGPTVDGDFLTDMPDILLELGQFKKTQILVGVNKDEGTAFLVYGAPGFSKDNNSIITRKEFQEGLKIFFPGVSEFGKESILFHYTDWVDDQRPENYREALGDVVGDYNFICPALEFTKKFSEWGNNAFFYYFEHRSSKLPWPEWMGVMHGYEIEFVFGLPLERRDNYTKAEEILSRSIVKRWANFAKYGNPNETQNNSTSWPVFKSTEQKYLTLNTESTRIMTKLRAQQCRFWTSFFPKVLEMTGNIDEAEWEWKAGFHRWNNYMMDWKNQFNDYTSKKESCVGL

Row | Structure (SMILES) | IC50 [1] [µM] | IC50 at 24 h (in vitro) [µM] | IC50 [2] [µM] | SI (selectivity index for hAChE) [2] | Pe [3] [×10⁻⁶ cm/s] | CNS (+/−) predicted BBB permeation [3]
1 | O=c1c(NCCCNc2c3c(nc4ccccc24)CCCC3)c(NCCCNc2c3c(nc4ccccc24)CCCC3)c1=O [Compound 3b, Bis({3-[(1,2,3,4-tetrahydroacridin-9-yl)amino]propyl}amino)cyclobut-3-ene-1,2-dione] | 0.055 | > 32 | 0.0084 | 6.5 | – | –
2 | O=c1c(NCCCCNc2c3c(nc4ccccc24)CCCC3)c(NCCCCNc2c3c(nc4ccccc24)CCCC3)c1=O [Compound 3c, Bis({4-[(1,2,3,4-tetrahydroacridin-9-yl)amino]butyl}amino)cyclobut-3-ene-1,2-dione] | 0.075 | 150 | 0.0055 | 14 | – | –
3 | O=c1c(NCCCCCNc2c3c(nc4ccccc24)CCCC3)c(NCCCCCNc2c3c(nc4ccccc24)CCCC3)c1=O [Compound 3d, Bis({5-[(1,2,3,4-tetrahydroacridin-9-yl)amino]pentyl}amino)cyclobut-3-ene-1,2-dione] | 0.069 | 69 | 0.0081 | 8.5 | – | –
4 | O=c1c(NCCCCCCCNc2c3c(nc4ccccc24)CCCC3)c(NCCCCCCCNc2c3c(nc4ccccc24)CCCC3)c1=O [Compound 3f, Bis({7-[(1,2,3,4-tetrahydroacridin-9-yl)amino]heptyl}amino)cyclobut-3-ene-1,2-dione] | 0.032 | 23 | 0.032 | 1 | – | –
5 | O=c1c(NCCCCCCCCNc2c3c(nc4ccccc24)CCCC3)c(NCCCCCCCCNc2c3c(nc4ccccc24)CCCC3)c1=O [Compound 3g, Bis({8-[(1,2,3,4-tetrahydroacridin-9-yl)amino]octyl}amino)cyclobut-3-ene-1,2-dione] | 0.05 | 6.6 | 0.072 | 0.7 | – | –
6 | O=c1c(NCCNc2c3c(nc4cc(Cl)ccc24)CCCC3)c(NCCNc2c3c(nc4cc(Cl)ccc24)CCCC3)c1=O [Compound 4a, Bis({2-[(6-chloro-1,2,3,4-tetrahydroacridin-9-yl)amino]ethyl}amino)cyclobut-3-ene-1,2-dione] | 0.15 | > 128 | 0.0042 | 36 | – | –
7 | O=c1c(NCCCCNc2c3c(nc4cc(Cl)ccc24)CCCC3)c(NCCCCNc2c3c(nc4cc(Cl)ccc24)CCCC3)c1=O [Compound 4c, Bis({4-[(6-chloro-1,2,3,4-tetrahydroacridin-9-yl)amino]butyl}amino)cyclobut-3-ene-1,2-dione] | 0.17 | > 64 | 0.0046 | 37 | – | –
8 | O=c1c(NCCCCCNc2c3c(nc4cc(Cl)ccc24)CCCC3)c(NCCCCCNc2c3c(nc4cc(Cl)ccc24)CCCC3)c1=O [Compound 4d, Bis({5-[(6-chloro-1,2,3,4-tetrahydroacridin-9-yl)amino]pentyl}amino)cyclobut-3-ene-1,2-dione] | 0.31 | > 64 | 0.0082 | 38 | – | –
9 | O=c1c(NCCCCCCCNc2c3c(nc4cc(Cl)ccc24)CCCC3)c(NCCCCCCCNc2c3c(nc4cc(Cl)ccc24)CCCC3)c1=O [Compound 4f, Bis({7-[(6-chloro-1,2,3,4-tetrahydroacridin-9-yl)amino]heptyl}amino)cyclobut-3-ene-1,2-dione] | 0.45 | > 64 | 0.016 | 28 | – | –
10 | O=c1c(NCCCCCCCCNc2c3c(nc4cc(Cl)ccc24)CCCC3)c(NCCCCCCCCNc2c3c(nc4cc(Cl)ccc24)CCCC3)c1=O [Compound 4g, Bis({8-[(6-chloro-1,2,3,4-tetrahydroacridin-9-yl)amino]octyl}amino)cyclobut-3-ene-1,2-dione] | > 100 | > 64 | 0.01 | ˃10,000 | – | –
11 | COc1ccc2nc3c(c(NCCCNc4c(NCCCNc5c6c(nc7ccc(OC)cc57)CCCC6)c(=O)c4=O)c2c1)CCCC3 [Compound 5b, Bis({3-[(7-methoxy-1,2,3,4-tetrahydroacridin-9-yl)amino]propyl}amino)cyclobut-3-ene-1,2-dione] | 8.9 | > 64 | 1.1 | 8.1 | – | –
12 | COc1ccc2nc3c(c(NCCCCNc4c(NCCCCNc5c6c(nc7ccc(OC)cc57)CCCC6)c(=O)c4=O)c2c1)CCCC3 [Compound 5c, Bis({4-[(7-methoxy-1,2,3,4-tetrahydroacridin-9-yl)amino]butyl}amino)cyclobut-3-ene-1,2-dione] | 4.7 | 190 | 4.5 | – | – | –
13 | COc1ccc2nc3c(c(NCCCCCCNc4c(NCCCCCCNc5c6c(nc7ccc(OC)cc57)CCCC6)c(=O)c4=O)c2c1)CCCC3 [Compound 5e, Bis({6-[(7-methoxy-1,2,3,4-tetrahydroacridin-9-yl)amino]hexyl}amino)cyclobut-3-ene-1,2-dione] | 1.1 | 26 | 0.15 | 7.3 | – | –
14 | Nc1c2c(nc3cc(Cl)ccc13)CCCC2 [Compound 6-Cl-THA, 6-chlorotacrine, reference compound] | – | 43 | – | – | – | –
15 | COc1ccc2nc3c(c(N)c2c1)CCCC3 [Compound 7-MEOTA, 7-methoxytacrine, reference compound] | – | 44 | – | – | – | –
16 | COc1ccc2c3c1O[C@H]1C[C@@H](O)C=C[C@@]31CCN(C)C2 [Galantamine, galantamine, reference compound] | – | 4200 | – | – | – | –
17 | CCN(C)C(=O)Oc1cccc([C@H](C)N(C)C)c1 [Rivastigmine, rivastigmine, reference compound] | – | 3400 | – | – | – | –
18 | Nc1c2c(nc3ccccc13)CCCC2 [THA, 9-amino-1,2,3,4-tetrahydroacridine, reference compound] | – | – | – | – | 6 | CNS + (CNS +: high BBB permeation predicted with Pe (10^−6 cm·s^−1) > 4.0)
19 | NS(=O)(=O)c1cc2c(cc1Cl)N=CNS2(=O)=O [chlorothiazide, reference compound] | – | – | – | – | 0.3 | CNS − (CNS −: low BBB permeation predicted with Pe (10^−6 cm·s^−1) < 2.0)
20 | CC(C)Cc1ccc(C(C)C(=O)O)cc1 (centres unmarked) [ibuprofen, reference compound] | – | – | – | – | 12 | –
21 | CNC(=C[N+](=O)[O-])NCCSCc1ccc(CN(C)C)o1 [ranitidine, reference compound] | – | – | – | – | 0 | CNS − (CNS −: low BBB permeation predicted with Pe (10^−6 cm·s^−1) < 2.0)
